From US12077503B2, “Substituted cyclic amides and their use as herbicides” (FMC CORPORATION, priority 2015, dated 2024)

Columns and labels:
Format in all cases: in vivo
[1] = system: ragweed (common ragweed, Ambrosia elatior); test: Test A preemergence; settings: Ambrosia artemisiifolia, pre-emergence, 240 h, 0 to 100 scale where 0 is no effect and 100 is complete control, read-out: Ragweed plant response rating; for pest or weed control at 31 g/ha: 31 g ai/ha, Preemergence; for pest or weed control at 125 g/ha: 125 g ai/ha, preemergence, visual injury rating, approximately 10 d
Procedure, shortened: (§1)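 Ratings of 0 (no effect) to 100 (complete control) come from visual comparison with untreated controls roughly 10 d after treatment. Test chemicals, formulated in a non-phytotoxic solvent mixture with surfactant, were applied either as a preemergence directed soil spray on seeded soil or postemergence to one- to two-leaf plants 2 to 10 cm tall.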

[2] = system: pigweed (Amaranthus retroflexus); test: Test A preemergence; settings: Amaranthus retroflexus, pre-emergence, 240 h, 0 to 100 scale where 0 is no effect and 100 is complete control, read-out: Pigweed plant response rating; for pest or weed control at 31 g/ha: 31 g ai/ha, Preemergence; for pest or weed control at 125 g/ha: 125 g ai/ha, preemergence, visual injury rating, approximately 10 d
[3] = system: giant foxtail (Setaria faberii); test: Test A preemergence; settings: Setaria faberi, pre-emergence, 240 h, 0 to 100 scale where 0 is no effect and 100 is complete control, read-out: Foxtail, Giant plant response rating; for pest or weed control at 31 g/ha: 31 g ai/ha, Preemergence; for pest or weed control at 125 g/ha: 125 g ai/ha, preemergence, visual injury rating, approximately 10 d
Procedure, shortened: as §1

[4] = system: ryegrass, Italian (Italian ryegrass, Lolium multiflorum); test: Test A preemergence; settings: Lolium multiflorum, pre-emergence, 240 h, 0 to 100 scale where 0 is no effect and 100 is complete control, read-out: Ryegrass, Italian plant response rating; for pest or weed control at 31 g/ha: 31 g ai/ha, Preemergence; for pest or weed control at 125 g/ha: 125 g ai/ha, preemergence, visual injury rating, approximately 10 d
Procedure, shortened: as §1

[5] = system: barnyardgrass (Echinochloa crus-galli); test: Test A preemergence; settings: Echinochloa crus-galli, pre-emergence, 240 h, 0 to 100 scale where 0 is no effect and 100 is complete control, read-out: Barnyardgrass plant response rating; for pest or weed control at 31 g/ha: 31 g ai/ha, Preemergence; for pest or weed control at 125 g/ha: 125 g ai/ha, preemergence, visual injury rating, approximately 10 d
Procedure, shortened: as §1

Kochia (Kochia scoparia) [6] = test: Test A preemergence; settings: Bassia scoparia, pre-emergence, 240 h, 0 to 100 scale where 0 is no effect and 100 is complete control, read-out: Kochia plant response rating; for pest or weed control at 31 g/ha: 31 g ai/ha, Preemergence; for pest or weed control at 125 g/ha: 125 g ai/ha, preemergence, visual injury rating, approximately 10 d
Procedure, shortened: as §1

[7] = system: ducksalad (Heteranthera limosa); test: Test B flooded paddy test; settings: Heteranthera limosa, 250 g ai/ha, Flood; 0 to 100 scale where 0 is no effect and 100 is complete control; read-out: Ducksalad plant response rating
Procedure, shortened: (§2)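 Percent control, visually estimated after 13–15 d in the greenhouse on a 0–100 basis, compares treated pots with untreated ones; compound was put into paddy water 3 cm above the soil when plants had two leaves.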

rice (Oryra sativa) = test: Test B flooded paddy test; settings: Oryza sativa, 250 g ai/ha, Flood; 0 to 100 scale where 0 is no effect and 100 is complete control; read-out: Rice plant response rating
Procedure, shortened: as §2

[8] = system: sedge, umbrella (small-flower umbrella sedge, Cyperus difformis); test: Test B flooded paddy test; settings: Cyperus difformis, 250 g ai/ha, Flood; 0 to 100 scale where 0 is no effect and 100 is complete control; read-out: Sedge, Umbrella plant response rating
Procedure, shortened: as §2

[9] = system: barnyardgrass (Echinochloa crus-galli); test: Test B flooded paddy test; settings: Echinochloa crus-galli, 250 g ai/ha, Flood; 0 to 100 scale where 0 is no effect and 100 is complete control; read-out: Barnyardgrass plant response rating
Procedure, shortened: as §2

[10] = system: ragweed (common ragweed, Ambrosia elatior); test: Test A postemergence; settings: Ambrosia artemisiifolia, post-emergence, 240 h, Postemergence, read-out: Ragweed plant response rating (0 to 100 scale); for pest or weed control at 125 g/ha: 125 g ai/ha, visual rating about 10 d after treatment; for pest or weed control at 31 g/ha: 31 g ai/ha, 0 is no effect, 100 is complete control
Procedure, shortened: as §1

[11] = system: pigweed (Amaranthus retroflexus); test: Test A postemergence; settings: Amaranthus retroflexus, post-emergence, 240 h, Postemergence, read-out: Pigweed plant response rating (0 to 100 scale); for pest or weed control at 125 g/ha: 125 g ai/ha, visual rating about 10 d after treatment; for pest or weed control at 31 g/ha: 31 g ai/ha, 0 is no effect, 100 is complete control
Procedure, shortened: as §1

[12] = system: wheat (Triticum aestivum); test: Test A postemergence; settings: Triticum aestivum, post-emergence, 240 h, Postemergence, read-out: Wheat plant response rating (0 to 100 scale); for plant injury at 125 g/ha: 125 g ai/ha, visual rating about 10 d after treatment; for plant injury at 31 g/ha: 31 g ai/ha, 0 is no effect, 100 is complete control
Procedure, shortened: as §1

corn (Zea mays) = test: Test A postemergence; settings: Zea mays, post-emergence, 240 h, Postemergence, read-out: Corn plant response rating (0 to 100 scale); for plant injury at 125 g/ha: 125 g ai/ha, visual rating about 10 d after treatment; for plant injury at 31 g/ha: 31 g ai/ha, 0 is no effect, 100 is complete control
Procedure, shortened: as §1

[13] = system: giant foxtail (Setaria faberii); test: Test A postemergence; settings: Setaria faberi, post-emergence, 240 h, Postemergence, read-out: Foxtail, Giant plant response rating (0 to 100 scale); for pest or weed control at 125 g/ha: 125 g ai/ha, visual rating about 10 d after treatment; for pest or weed control at 31 g/ha: 31 g ai/ha, 0 is no effect, 100 is complete control
Procedure, shortened: as §1

[14] = system: blackgrass (Alopecurus myosuroides); test: Test A postemergence; settings: Alopecurus myosuroides, post-emergence, 240 h, Postemergence, read-out: Blackgrass plant response rating (0 to 100 scale); for pest or weed control at 125 g/ha: 125 g ai/ha, visual rating about 10 d after treatment; for pest or weed control at 31 g/ha: 31 g ai/ha, 0 is no effect, 100 is complete control
Procedure, shortened: as §1

[15] = system: ryegrass, Italian (Italian ryegrass, Lolium multiflorum); test: Test A postemergence; settings: Lolium multiflorum, post-emergence, 240 h, Postemergence, read-out: Ryegrass, Italian plant response rating (0 to 100 scale); for pest or weed control at 125 g/ha: 125 g ai/ha, visual rating about 10 d after treatment; for pest or weed control at 31 g/ha: 31 g ai/ha, 0 is no effect, 100 is complete control
Procedure, shortened: as §1

[16] = system: Galium (catchweed bedstraw, Galium aparine); test: Test A postemergence; settings: Galium, post-emergence, 240 h, Postemergence, read-out: Galium plant response rating (0 to 100 scale); for pest or weed control at 125 g/ha: 125 g ai/ha, visual rating about 10 d after treatment; for pest or weed control at 31 g/ha: 31 g ai/ha, 0 is no effect, 100 is complete control
Procedure, shortened: as §1

[17] = system: barnyardgrass (Echinochloa crus-galli); test: Test A postemergence; settings: Echinochloa crus-galli, post-emergence, 240 h, Postemergence; for pest or weed control at 125 g/ha: 125 g ai/ha, visual rating about 10 d after treatment, read-out: Barnyardgrass plant response rating (0 to 100 scale, 0 no effect, 100 complete control); for pest or weed control at 31 g/ha: 31 g ai/ha, 0 is no effect, 100 is complete control, read-out: Barnyardgrass plant response rating (0 to 100 scale)
Procedure, shortened: as §1

Kochia (Kochia scoparia) [18] = test: Test A postemergence; settings: Bassia scoparia, post-emergence, 240 h, Postemergence, read-out: Kochia plant response rating (0 to 100 scale); for pest or weed control at 125 g/ha: 125 g ai/ha, visual rating about 10 d after treatment; for pest or weed control at 31 g/ha: 31 g ai/ha, 0 is no effect, 100 is complete control
Procedure, shortened: as §1

## CN1C[C@H](c2ccc3c(c2)C(F)(F)C(F)(F)O3)[C@@H](C(=O)Nc2cccc(F)c2F)C1=O [Compound 1271]
[1]
  pest or weed control at 31 g/ha: 0%
  pest or weed control at 125 g/ha: 20%
[2]
  pest or weed control at 31 g/ha: 0%
  pest or weed control at 125 g/ha: 50%
[3]
  pest or weed control at 31 g/ha: 80%
  pest or weed control at 125 g/ha: 90%
[4]
  pest or weed control at 31 g/ha: 70%
  pest or weed control at 125 g/ha: 90%
[5]
  pest or weed control at 31 g/ha: 90%
  pest or weed control at 125 g/ha: 90%
Kochia (Kochia scoparia) [6]
  pest or weed control at 31 g/ha: 30%
  pest or weed control at 125 g/ha: 40%
[7]
  pest or weed control at 250 g/ha: 90%
Rice (Oryra sativa)
  pest or weed control at 250 g/ha: 0%
[8]
  pest or weed control at 250 g/ha: 0%
[9]
  pest or weed control at 250 g/ha: 40%
[10]
  pest or weed control at 125 g/ha: 0%
  pest or weed control at 31 g/ha: 0%
[11]
  pest or weed control at 125 g/ha: 30%
  pest or weed control at 31 g/ha: 20%
[12]
  plant injury at 125 g/ha: 60%
  plant injury at 31 g/ha: 20%
Corn (Zea mays)
  plant injury at 125 g/ha: 40%
  plant injury at 31 g/ha: 30%
[13]
  pest or weed control at 125 g/ha: 80%
  pest or weed control at 31 g/ha: 20%
[14]
  pest or weed control at 125 g/ha: 30%
  pest or weed control at 31 g/ha: 0%
[15]
  pest or weed control at 125 g/ha: 30%
  pest or weed control at 31 g/ha: 0%
[16]
  pest or weed control at 125 g/ha: 60%
  pest or weed control at 31 g/ha: 60%
[17]
  pest or weed control at 125 g/ha: 60%
  pest or weed control at 31 g/ha: 40%
Kochia (Kochia scoparia) [18]
  pest or weed control at 125 g/ha: 40%
  pest or weed control at 31 g/ha: 20%

## O=C1NC[C@H](c2cc(Cl)cc(Cl)c2)[C@H]1C(=O)Nc1cccc(F)c1F [Compound 1273]
[1]
  pest or weed control at 31 g/ha: 0%
  pest or weed control at 125 g/ha: 0%
[2]
  pest or weed control at 31 g/ha: 0%
  pest or weed control at 125 g/ha: 20%
[3]
  pest or weed control at 31 g/ha: 80%
  pest or weed control at 125 g/ha: 90%
[4]
  pest or weed control at 31 g/ha: 0%
  pest or weed control at 125 g/ha: 40%
[5]
  pest or weed control at 31 g/ha: 60%
  pest or weed control at 125 g/ha: 80%
Kochia (Kochia scoparia) [6]
  pest or weed control at 31 g/ha: 0%
  pest or weed control at 125 g/ha: 50%
[7]
  pest or weed control at 250 g/ha: 90%
Rice (Oryra sativa)
  pest or weed control at 250 g/ha: 0%
[8]
  pest or weed control at 250 g/ha: 0%
[9]
  pest or weed control at 250 g/ha: 30%
[10]
  pest or weed control at 125 g/ha: 0%
  pest or weed control at 31 g/ha: 0%
[11]
  pest or weed control at 125 g/ha: 40%
  pest or weed control at 31 g/ha: 0%
[12]
  plant injury at 125 g/ha: 30%
  plant injury at 31 g/ha: 0%
Corn (Zea mays)
  plant injury at 125 g/ha: 60%
  plant injury at 31 g/ha: 0%
[13]
  pest or weed control at 125 g/ha: 80%
  pest or weed control at 31 g/ha: 60%
[14]
  pest or weed control at 125 g/ha: 20%
  pest or weed control at 31 g/ha: 0%
[15]
  pest or weed control at 125 g/ha: 40%
  pest or weed control at 31 g/ha: 0%
[16]
  pest or weed control at 125 g/ha: 50%
  pest or weed control at 31 g/ha: 40%
[17]
  pest or weed control at 125 g/ha: 60%
  pest or weed control at 31 g/ha: 50%
Kochia (Kochia scoparia) [18]
  pest or weed control at 125 g/ha: 60%
  pest or weed control at 31 g/ha: 0%
